Consider 11 molecules from ChEMBL document CHEMBL1201862, “PubChem BioAssay data set” (2004).

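Each compound was tested at five concentrations against cells in 96-well plates for 48 hours. GI50: concentration for 50% inhibition of growth.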 Active and inactive are the calls of the source. Cut-off read from the data, not from the text of the source: active = GI50 up to about 1.1 µM and inactive = higher. A value given as a limit tells only on which side of the number the result lay.

Some test systems named below: A549; MOLT-4; NCI-H522; COLO 205; MCF7; SNB-75; U-251; SN12C; SK-MEL-28; MDA-MB-435; CCRF-CEM; KM12; NCI-H23; SK-MEL-5; ACHN; NCI-H226; UACC-257; SK-MEL-2; LOX IMVI; HL-60.
Experiment in all cases: NCI tumour cell line growth inhibition, 48 h

With `O=C(NNC(=S)Nc1ccc(Br)cc1)c1cc(-c2ccccc2)nc2ccccc12`, the GI50 was 21 µM (inactive) in the assay with A549; 22.1 µM (inactive) with MOLT-4; 22.2 µM (inactive) in the assay with NCI-H522; 22.6 µM (inactive) in the assay with COLO 205; 18.4 µM (inactive) with MCF7; 29.2 µM (inactive) in the assay with SNB-75. For the same molecule, the GI50 in the assay with U-251 is 16.2 µM (inactive); in the assay on SN12C, 19.1 µM (inactive); in the assay with SK-MEL-28, 21.1 µM (inactive); in the assay with MDA-MB-435 it was 17.1 µM (inactive); with CCRF-CEM, 22.1 µM (inactive); in the assay on KM12, 29.9 µM (inactive). For the same molecule, the GI50 was 23.6 µM (inactive) in the assay on NCI-H23; 15.8 µM (inactive) in the assay with SK-MEL-5; 34.8 µM (inactive) in the assay with ACHN; 24.3 µM (inactive) in the assay on NCI-H226; 23.2 µM (inactive) with UACC-257; 20 µM (inactive) in the assay on SK-MEL-2.
Regarding `O=C(O)c1cccc(/[As]=[As]\c2cccc(C(=O)O)c2)c1` (stereo not drawn), the GI50 was > 100 µM (inactive) in the assay on A549; 30.3 µM (inactive) in the assay with MOLT-4; 17.9 µM (inactive) in the assay with NCI-H522; 33 µM (inactive) with COLO 205; 32.9 µM (inactive) in the assay on MCF7; 21.5 µM (inactive) in the assay with SNB-75. The GI50 with U-251 was 15.7 µM (inactive); in the assay on SN12C it was 38.2 µM (inactive); with SK-MEL-28 it was > 100 µM (inactive); in the assay on MDA-MB-435, 52.1 µM (inactive); with LOX IMVI, 18.2 µM (inactive); in the assay with CCRF-CEM it was 21.9 µM (inactive). For the same molecule, the GI50 in the assay with KM12 was > 100 µM (inactive); in the assay on NCI-H23, 31 µM (inactive); in the assay on SK-MEL-5, 32.7 µM (inactive); in the assay on ACHN, 73.3 µM (inactive); in the assay with NCI-H226, 84.9 µM (inactive); in the assay with UACC-257, 40.9 µM (inactive). The GI50 in the assay on SK-MEL-2 is 21.7 µM (inactive).
Take `O=C(O)CCC(=O)c1ccc2c(c1)C(C(=O)O)CC2` (stereo not drawn): the GI50 in the assay on A549 was 0.0902 µM (active); with MOLT-4, > 100 µM (inactive); in the assay on NCI-H522, > 100 µM (inactive); with COLO 205 it was > 100 µM (inactive); with MCF7, > 100 µM (inactive); with U-251, > 100 µM (inactive). For the same molecule, the GI50 with SN12C, in the assay on SK-MEL-28, in the assay with MDA-MB-435, with LOX IMVI, in the assay on KM12 and in the assay on NCI-H23 was > 100 µM (inactive) throughout. For the same molecule, the GI50 in the assay on SK-MEL-5, in the assay on ACHN, in the assay with HL-60, in the assay with NCI-H226, in the assay on UACC-257 and in the assay on SK-MEL-2 was > 100 µM (inactive) throughout.
On to `COc1ccc(C(=O)Sc2c(-c3ccccc3)c(=O)n(-c3ccccc3)c(=S)n2-c2ccccc2)cc1`, for which the GI50 with A549 is 64.1 µM (inactive); in the assay with MOLT-4, 21.6 µM (inactive); in the assay on NCI-H522 it was > 100 µM (inactive); with COLO 205, 39.7 µM (inactive); in the assay on MCF7 it was > 100 µM (inactive); in the assay on SNB-75, > 100 µM (inactive). For the same molecule, the GI50 in the assay on U-251 is 47 µM (inactive); with SN12C, 41.7 µM (inactive); in the assay with SK-MEL-28, 81.5 µM (inactive); in the assay on MDA-MB-435, > 100 µM (inactive); in the assay on LOX IMVI it was 74.5 µM (inactive); in the assay with CCRF-CEM, 22.3 µM (inactive). The GI50 in the assay with KM12 is > 100 µM (inactive); in the assay with NCI-H23, > 100 µM (inactive); in the assay on ACHN, 40.5 µM (inactive); with HL-60, 60.5 µM (inactive); in the assay with NCI-H226, 5.73 µM (inactive); in the assay on UACC-257, > 100 µM (inactive).
For `Nc1nc(N)c2c(n1)CCC(S(=O)(=O)c1ccc3ccccc3c1)C2` (stereo not drawn), the GI50 with A549 was 0.54 µM (active); with MOLT-4 it was 2 µM (inactive); in the assay with COLO 205 it was 8.38 µM (inactive); in the assay on MCF7, 10.1 µM (inactive); with U-251, 2.45 µM (inactive); with SN12C, 7 µM (inactive). The GI50 was 27.7 µM (inactive) with SK-MEL-28; 0.714 µM (active) with MDA-MB-435; 0.706 µM (active) in the assay on LOX IMVI; 5.2 µM (inactive) with CCRF-CEM; 6.08 µM (inactive) with KM12; 2.53 µM (inactive) with NCI-H23. Moreover, the GI50 was 2.55 µM (inactive) in the assay on SK-MEL-5; 3.85 µM (inactive) in the assay with ACHN; 13.5 µM (inactive) with HL-60; 39.3 µM (inactive) with NCI-H226; 12.5 µM (inactive) with UACC-257.
`CNC(=O)CNC(=O)C(Cc1ccc(NC(=O)CCCCC(C)=O)cc1)NC(=O)C(CCC(=O)OCc1ccccc1)NC(=O)OC(C)(C)C` (stereo not drawn): the GI50 in the assay on A549, in the assay with MOLT-4, with NCI-H522, with COLO 205, in the assay on MCF7 and in the assay with SNB-75 was > 100 µM (inactive) in each case. The GI50 with U-251, in the assay on SN12C, in the assay with SK-MEL-28, in the assay on MDA-MB-435, with LOX IMVI and with KM12 was > 100 µM (inactive) each time. The GI50 in the assay on NCI-H23, with SK-MEL-5, in the assay on ACHN, in the assay with HL-60 and in the assay on NCI-H226 was > 100 µM (inactive) throughout.
Take `Cc1ccc(C2=Nc3cc(C)c(Cl)cc3S(=O)(=O)NN2)cc1`: the GI50 is 57.8 µM (inactive) in the assay with A549; 37.9 µM (inactive) in the assay with MOLT-4; > 100 µM (inactive) in the assay on NCI-H522; > 100 µM (inactive) with COLO 205; > 100 µM (inactive) in the assay with MCF7; > 100 µM (inactive) in the assay on SNB-75. Further, the GI50 with U-251 is > 100 µM (inactive); in the assay on SN12C, > 100 µM (inactive); with SK-MEL-28, > 100 µM (inactive); in the assay on MDA-MB-435 it was > 100 µM (inactive); in the assay on LOX IMVI, > 100 µM (inactive); with CCRF-CEM, 38.5 µM (inactive). Besides, the GI50 was > 100 µM (inactive) in the assay on KM12; > 100 µM (inactive) with NCI-H23; > 100 µM (inactive) in the assay on SK-MEL-5; 65.5 µM (inactive) with ACHN; 34.4 µM (inactive) in the assay with HL-60; > 100 µM (inactive) in the assay with NCI-H226. In the assay with UACC-257, the GI50 was > 100 µM (inactive).
On to `Cc1cn(CCCCCOC(=O)NC(CCCNC(=N)N)C(=O)O)c(=O)[nH]c1=O` (stereo not drawn), for which the GI50 in the assay with A549 is 49.2 µM (inactive); in the assay with MOLT-4 it was 35.6 µM (inactive); in the assay with COLO 205, 26.1 µM (inactive); in the assay on MCF7, 54.7 µM (inactive); in the assay on SNB-75, 31.6 µM (inactive); with U-251, 50.2 µM (inactive). In addition, the GI50 in the assay on SN12C is 56.8 µM (inactive); in the assay with SK-MEL-28, 76.4 µM (inactive); in the assay on MDA-MB-435 it was 6.32 µM (inactive); in the assay on LOX IMVI, 53.6 µM (inactive); with CCRF-CEM it was 37.2 µM (inactive); with KM12 it was 19 µM (inactive). Also, the GI50 with NCI-H23 was 40.2 µM (inactive); in the assay with ACHN it was 72.3 µM (inactive); in the assay with HL-60, 17 µM (inactive); in the assay on NCI-H226 it was 30.3 µM (inactive); in the assay on UACC-257 it was > 100 µM (inactive); in the assay with SK-MEL-2 it was > 100 µM (inactive).
Take `COc1ccc(C)c2c1N[C@](C)([C@]1(C)Nc3c(OC)ccc(C)c3C1=O)C2=O`: the GI50 with A549, with MOLT-4, in the assay with NCI-H522, with COLO 205, with MCF7 and in the assay on U-251 was > 100 µM (inactive) throughout. Further, the GI50 in the assay with SN12C is > 100 µM (inactive); with SK-MEL-28 it was > 100 µM (inactive); with MDA-MB-435, 44.7 µM (inactive); in the assay with LOX IMVI, > 100 µM (inactive); with CCRF-CEM, > 100 µM (inactive); in the assay on KM12, 76.9 µM (inactive). In addition, the GI50 with NCI-H23, in the assay on SK-MEL-5, with ACHN, with NCI-H226, in the assay on UACC-257 and in the assay with SK-MEL-2 was > 100 µM (inactive) in each case.
`C[C@]12CC[C@@H]3c4cc(Br)c(O)c(Br)c4CC[C@H]3[C@@H]1CCC2=O`: the GI50 with A549 is 17.3 µM (inactive); in the assay with MOLT-4, 20.6 µM (inactive); in the assay with COLO 205 it was > 100 µM (inactive); with MCF7, 21.4 µM (inactive); with SNB-75 it was 16.1 µM (inactive); in the assay on U-251 it was 16.6 µM (inactive). Further, the GI50 was 27.7 µM (inactive) in the assay on SN12C; 31 µM (inactive) in the assay with SK-MEL-28; 26.2 µM (inactive) in the assay with MDA-MB-435; 20.4 µM (inactive) with LOX IMVI; 24.7 µM (inactive) in the assay on CCRF-CEM; 63.7 µM (inactive) in the assay on KM12. Further, the GI50 in the assay on NCI-H23 is 13.8 µM (inactive); with ACHN, 13.5 µM (inactive); with HL-60 it was 26.2 µM (inactive); in the assay on NCI-H226, 7.87 µM (inactive); in the assay on UACC-257, 20.9 µM (inactive); in the assay on SK-MEL-2, 15 µM (inactive).
For the molecule `CC(C)(C)OC(=O)NCCCCC1NC(=O)[C@@H]2Cc3c([nH]c4ccccc34)C(C3CCCCC3)N2C1=O` (stereo partly drawn), the GI50 with A549 was 30.5 µM (inactive); in the assay with MOLT-4, 5.28 µM (inactive); in the assay with NCI-H522, 45.3 µM (inactive); in the assay with COLO 205, 20.2 µM (inactive); with MCF7, 30.6 µM (inactive); in the assay on U-251 it was 31.5 µM (inactive). In addition, the GI50 with SN12C is 39.1 µM (inactive); with SK-MEL-28 it was 85.1 µM (inactive); with MDA-MB-435 it was 23.6 µM (inactive); with LOX IMVI, 31.2 µM (inactive); in the assay with KM12, 23.6 µM (inactive); with NCI-H23 it was 49.8 µM (inactive). Also, the GI50 was 33.6 µM (inactive) with SK-MEL-5; 45.6 µM (inactive) in the assay on ACHN; 31.1 µM (inactive) in the assay with HL-60; 75 µM (inactive) in the assay on NCI-H226; 35.7 µM (inactive) with UACC-257; 26 µM (inactive) in the assay on SK-MEL-2.
